Laboratory results published in PubChem BioAssay (NCI).
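Exposure lasted 48 hours, with cells grown in 96-well plates and compounds tested at five concentrations. The concentration for full growth arrest is given as TGI.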 Where a SMILES comes first, the peptide text is derived from it. The star is where a group is joined. Fmoc = O=C(OCC1c2ccccc2-c2ccccc21)*; Boc = CC(C)(C)OC(=O)*

How the values were obtained:
Assay in all cases: growth of human tumour cells (NCI), 48 h
[1] = test system: NCI/ADR-RES ovarian
[2] = test system: CCRF-CEM leukemia
[3] = test system: MCF7 breast
[4] = test system: HT29 colon
[5] = test system: BT-549 breast
[6] = test system: SK-MEL-2 melanoma
[7] = test system: CAKI-1 renal
[8] = test system: HCT-116 colon
[9] = test system: SK-MEL-5 melanoma
[10] = test system: RPMI-8226 leukemia

| SMILES | TGI [1] | TGI [2] | TGI [3] | TGI [4] | TGI [5] | TGI [6] | TGI [7] | TGI [8] | TGI [9] | TGI [10] |
| --- | --- | --- | --- | --- | --- | --- | --- | --- | --- | --- |
| CSc1ccc(/C=C2\N=C(c3ccccc3)N(c3nc4cc(C)c(C)cc4s3)C2=O)cc1 | > 100 µM | 34.6 µM | 37.2 µM | 47.9 µM | 98.1 µM | 34.1 µM | > 100 µM | 44.5 µM | 84.5 µM | > 100 µM |
| CC(C)Cc1cc2c(cc1O)CCC1C2CC[C@@]2(C)C1CC[C@@H]2O (stereo not given in full) | 20.9 µM | 27.1 µM | 25.9 µM | 21.6 µM | 14.2 µM | 15.7 µM | 35.6 µM | 16.2 µM | 20.3 µM | 20.4 µM |
| O=C(C/C(=N/O)c1cc(-c2ccccc2)no1)c1ccccc1 | 69.1 µM | > 100 µM | > 100 µM | > 100 µM | 75.1 µM | > 100 µM | > 100 µM | 60 µM | > 100 µM | > 100 µM |
| C=C(CN1CC2C[C@](C(=O)OC)(c3cc4ccccc4[nH]3)C1C(OC)C2OC)S(=O)(=O)c1ccccc1 (stereo not given in full) | 20.7 µM | > 77.2 µM | 18.9 µM | 9.44 µM | 12.4 µM | 12.3 µM | 11.7 µM | 7.08 µM | 10.7 µM | 6.06 µM |
| O=C(O)CCCc1ccc2ccccc2c1 | > 100 µM | > 100 µM | > 100 µM | > 100 µM | > 100 µM | > 100 µM | > 100 µM | > 100 µM | > 100 µM | > 100 µM |
| CCN(CC)CCNc1ccc2nnn3c4ccc(O)cc4c(=O)c1c23 | 12.2 µM | 31.6 µM | 28.1 µM | 15 µM | 25.5 µM | 25.2 µM | 13.4 µM | 15.6 µM | 15.7 µM | 19.8 µM |
| COc1ccc2nc3ccc(OC)cc3c(SCc3ccccc3)c2c1 | > 100 µM | > 94.1 µM | > 100 µM | > 100 µM | > 100 µM | > 100 µM | > 100 µM | > 100 µM | > 100 µM | > 100 µM |
| O=C(CSc1nc2ccc(I)cc2c(=O)n1Cc1ccccc1)NNC(=O)c1ccccc1 | 49 µM | > 100 µM | 23.2 µM | > 100 µM | 21.3 µM | 19.2 µM | 12.3 µM | > 100 µM | 33 µM | 28 µM |
| C[C@@H](NC(=O)c1ccc(CNC(=O)/C=C/c2cccc(Oc3ccccc3)c2)cc1)c1ccccc1 | > 100 µM | > 100 µM | > 100 µM | > 100 µM | > 100 µM | > 100 µM | 44.2 µM | > 100 µM | > 100 µM | > 100 µM |
| O=C(c1ccc(Cl)cc1)N(C(=S)OCc1ccccn1)c1ccccc1 | > 100 µM | > 100 µM | > 100 µM | > 100 µM | > 100 µM | > 100 µM | > 100 µM | > 100 µM | > 100 µM | > 100 µM |
| CCOC(=O)C(=O)/C(=C/N1C(=O)CC(=O)NC1=S)C(=O)OCC | > 100 µM | > 100 µM | > 100 µM | > 100 µM | > 100 µM | > 100 µM | > 100 µM | > 100 µM | > 100 µM | > 100 µM |
| CCOP(=O)(OCC)/C(C#N)=C/c1cnc[nH]1 | > 100 µM | > 100 µM | > 100 µM | > 100 µM | > 100 µM | > 100 µM | > 100 µM | > 100 µM | > 100 µM | > 100 µM |
| O=C1C=C(OCCCCl)C(=O)c2c(O)ccc(O)c21 | 7.3 µM | 3.75 µM | 0.438 µM | 1.31 µM | 2.56 µM | 2.43 µM | 3.4 µM | 1.28 µM | 0.306 µM | 6.01 µM |
| COC(=O)CCC(C)C1CCC2C3C(C[C@H](OC(C)=O)[C@]12C)[C@@]1(C)CCC2(C[C@H]1C[C@H]3OC(C)=O)OOC1(CC[C@]3(C)C4C[C@H](OC(C)=O)[C@]5(C)C(C(C)CCC(=O)OC)CCC5C4[C@H](OC(C)=O)C[C@@H]3C1)OO2 (stereo not given in full) | > 100 µM | > 100 µM | > 100 µM | > 100 µM | > 100 µM | > 100 µM | > 100 µM | > 100 µM | > 100 µM | > 100 µM |
| COC(=O)C1=C(C)C=C(N2CCOCC2)C(C(=O)OC)C1c1ccccc1 (stereo not given) | > 10 µM | > 10 µM | > 10 µM | > 10 µM | > 10 µM | > 10 µM | > 10 µM | > 10 µM | > 10 µM | > 10 µM |
| COc1cc(-c2[o+]c3cc(O)cc(O)c3cc2O)cc(O)c1O | > 100 µM | 75.9 µM | 46.3 µM | > 100 µM | > 100 µM | > 100 µM | > 100 µM | > 100 µM | > 100 µM | > 100 µM |
| CC(C)(C)OC(=O)NCCCCC(NC(=O)C(Cc1c[nH]c2ccccc12)NC(=O)OCC1c2ccccc2-c2ccccc21)C(=O)N1CCCC1C(=O)NCC(N)=O (stereo not given) (Fmoc-WK(Boc)PG-NH2; configuration not given here) | > 100 µM | > 100 µM | > 100 µM | > 100 µM | > 100 µM | > 100 µM | > 100 µM | > 100 µM | > 100 µM | > 100 µM |
